Results as given in publication PMC11862134 (Nature Communications, 2025).
No end group written: not given here.

Legend:
BAM1 and BAM3 receptor = settings: upon reaching the leaves, drought stress; cited from earlier work
[1] = molecular target: GST-tagged TaCLV1-LRR (extracellular domains of TaCLV1, residues 58-668) (wheat (Triticum aestivum L.)); experiment: MST

Molecule | interaction with BAM1 and BAM3 receptor (BAM1 and BAM3 receptor) | Kd [1] [nM]
CLE25: CLE25 peptide, messenger of water deficiency from roots to leaves (RKVPNGPDPIHN; ends and bridges not checked; UniProt Q8LFL4 58-69, looked up) | interacts with and activates BAM1 and BAM3 receptor | –
RLSPGGSNPQHH [mature TaCLE24b peptide] | – | 19.4
